These are literature values, as cited in patent US20230000903A1, “METHODS AND SYSTEMS FOR NITRIC OXIDE THERAPY FOR THE TREATMENT OR PREVENTION OF RESPIRATORY INFECTIONS” (KNOW Bio, LLC, priority 2020, published 2023).

In the case of `[N]=O` [NO, nitric oxide], for the setting “beyond which it is inactivated by binding to thiols or heme of hemoglobin”, the “radius of action from its site of origin” value is given as “approximately 200 microns”. For the same compound, the “half-life in the body” value (in the body) is listed as “less than 6 seconds”. The “share of the nitric oxide dose inhaled excreted in the urine as nitrate” value (urine, nitrate as predominant metabolite, inhaled dose) is listed as “more than 70%”.
